{"source": "ChEMBL document CHEMBL1201862", "about": "“PubChem BioAssay data set” (2004)", "experiment_in_all_cases": "NCI-60 cell line screen, 48 h", "key": {"HCT-116": {"test_system": "HCT-116"}, "OVCAR-8": {"test_system": "OVCAR-8"}, "Malme-3M": {"test_system": "Malme-3M"}, "HCT-15": {"test_system": "HCT-15"}, "NCI/ADR-RES": {"test_system": "NCI/ADR-RES"}, "ACHN": {"test_system": "ACHN"}, "BT-549": {"test_system": "BT-549"}, "SK-MEL-28": {"test_system": "SK-MEL-28"}, "SF-295": {"test_system": "SF-295"}, "LOX IMVI": {"test_system": "LOX IMVI"}, "M14": {"test_system": "M14"}, "NCI-H460": {"test_system": "NCI-H460"}, "SF-268": {"test_system": "SF-268"}, "SNB-75": {"test_system": "SNB-75"}, "SK-OV-3": {"test_system": "SK-OV-3"}, "Hs-578T": {"test_system": "Hs-578T"}, "786-0": {"test_system": "786-0"}, "SW-620": {"test_system": "SW-620"}, "TK-10": {"test_system": "TK-10"}, "RPMI-8226": {"test_system": "RPMI-8226"}, "KM12": {"test_system": "KM12"}, "IGROV-1": {"test_system": "IGROV-1"}, "SR": {"test_system": "SR"}, "CCRF-CEM": {"test_system": "CCRF-CEM"}, "HT-29": {"test_system": "HT-29"}, "T47D": {"test_system": "T47D"}, "U-251": {"test_system": "U-251"}, "COLO 205": {"test_system": "COLO 205"}, "MDA-MB-231": {"test_system": "MDA-MB-231"}, "DU-145": {"test_system": "DU-145"}, "HOP-92": {"test_system": "HOP-92"}, "MOLT-4": {"test_system": "MOLT-4"}, "MDA-MB-435": {"test_system": "MDA-MB-435"}, "NCI-H226": {"test_system": "NCI-H226"}, "HCC 2998": {"test_system": "HCC 2998"}, "SF-539": {"test_system": "SF-539"}, "PC-3": {"test_system": "PC-3"}, "UO-31": {"test_system": "UO-31"}, "MDA-N": {"test_system": "MDA-N"}, "HOP-62": {"test_system": "HOP-62"}, "UACC-62": {"test_system": "UACC-62"}, "MCF7": {"test_system": "MCF7"}, "NCI-H522": {"test_system": "NCI-H522"}, "A549": {"test_system": "A549"}, "OVCAR-3": {"test_system": "OVCAR-3"}, "SK-MEL-5": {"test_system": "SK-MEL-5"}, "UACC-257": {"test_system": "UACC-257"}, "SNB-19": {"test_system": "SNB-19"}, "SN12C": {"test_system": "SN12C"}, "SK-MEL-2": {"test_system": "SK-MEL-2"}, "NCI-H23": {"test_system": "NCI-H23"}, "HL-60": {"test_system": "HL-60"}, "OVCAR-5": {"test_system": "OVCAR-5"}}, "note": "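Assay format: 96-well plates, 48-hour exposure. Here, GI50 denotes the concentration required for 50% inhibition of growth.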 The source made the active and inactive calls. No stated cut-off is given here; in the data, active = GI50 up to about 1.1 µM and inactive = higher.", "data": [{"smiles": "CC1OC2OC3C(OCC(O)C3O)OC(=O)[C@]34CCC(C)(C)CC3C3=CCC5[C@@]6(C)C[C@H](O)[C@H](OC7OC(CO)C(O)C(O)C7OC7OCC(OC(=O)CC(C)(O)CC(=O)OC1C(O)C2O)C(O)C7O)[C@@](C)(CO)C6CC[C@@]5(C)[C@]3(C)CC4", "note": "(stereo partly drawn)", "values": [{"measurement": "GI50", "setting": "HCT-116", "result": "5.75 µM (inactive)"}, {"measurement": "GI50", "setting": "OVCAR-8", "result": "4.5 µM (inactive)"}, {"measurement": "GI50", "setting": "Malme-3M", "result": "3.68 µM (inactive)"}, {"measurement": "GI50", "setting": "HCT-15", "result": 7.98, "unit": "µM"}, {"measurement": "GI50", "setting": "NCI/ADR-RES", "result": "12.7 µM (inactive)"}, {"measurement": "GI50", "setting": "ACHN", "result": "6.34 µM (inactive)"}, {"measurement": "GI50", "setting": "BT-549", "result": "10.2 µM (inactive)"}, {"measurement": "GI50", "setting": "SK-MEL-28", "result": "1.96 µM (inactive)"}, {"measurement": "GI50", "setting": "SF-295", "result": "3.42 µM (inactive)"}, {"measurement": "GI50", "setting": "LOX IMVI", "result": "9.86 µM (inactive)"}, {"measurement": "GI50", "setting": "M14", "result": "2.82 µM (inactive)"}, {"measurement": "GI50", "setting": "NCI-H460", "result": "11.6 µM (inactive)"}, {"measurement": "GI50", "setting": "SF-268", "result": "2.45 µM (inactive)"}, {"measurement": "GI50", "setting": "SNB-75", "result": "5.64 µM (inactive)"}, {"measurement": "GI50", "setting": "SK-OV-3", "result": "3.19 µM (inactive)"}, {"measurement": "GI50", "setting": "Hs-578T", "result": "8.34 µM (inactive)"}, {"measurement": "GI50", "setting": "786-0", "result": "12.1 µM (inactive)"}, {"measurement": "GI50", "setting": "SW-620", "result": "8.85 µM (inactive)"}, {"measurement": "GI50", "setting": "TK-10", "result": "8.79 µM (inactive)"}, {"measurement": "GI50", "setting": "RPMI-8226", "result": "4.17 µM (inactive)"}, {"measurement": "GI50", "setting": "KM12", "result": "2.82 µM (inactive)"}, {"measurement": "GI50", "setting": "IGROV-1", "result": "5.71 µM (inactive)"}, {"measurement": "GI50", "setting": "SR", "result": "6.35 µM (inactive)"}, {"measurement": "GI50", "setting": "CCRF-CEM", "result": "5.68 µM (inactive)"}, {"measurement": "GI50", "setting": "HT-29", "result": "2.73 µM (inactive)"}, {"measurement": "GI50", "setting": "T47D", "result": "4.98 µM (inactive)"}, {"measurement": "GI50", "setting": "U-251", "result": "3.48 µM (inactive)"}, {"measurement": "GI50", "setting": "COLO 205", "result": "1.89 µM (inactive)"}, {"measurement": "GI50", "setting": "MDA-MB-231", "result": "9.23 µM (inactive)"}, {"measurement": "GI50", "setting": "DU-145", "result": "3.97 µM (inactive)"}, {"measurement": "GI50", "setting": "HOP-92", "result": "2.32 µM (inactive)"}, {"measurement": "GI50", "setting": "MOLT-4", "result": "8.89 µM (inactive)"}, {"measurement": "GI50", "setting": "MDA-MB-435", "result": "5.89 µM (inactive)"}, {"measurement": "GI50", "setting": "NCI-H226", "result": "14.9 µM (inactive)"}, {"measurement": "GI50", "setting": "HCC 2998", "result": "2.43 µM (inactive)"}, {"measurement": "GI50", "setting": "SF-539", "result": "12.7 µM (inactive)"}, {"measurement": "GI50", "setting": "PC-3", "result": "2.17 µM (inactive)"}, {"measurement": "GI50", "setting": "UO-31", "result": "6.03 µM (inactive)"}, {"measurement": "GI50", "setting": "MDA-N", "result": "4.05 µM (inactive)"}, {"measurement": "GI50", "setting": "HOP-62", "result": "2.75 µM (inactive)"}, {"measurement": "GI50", "setting": "UACC-62", "result": "4.3 µM (inactive)"}, {"measurement": "GI50", "setting": "MCF7", "result": "13 µM (inactive)"}, {"measurement": "GI50", "setting": "NCI-H522", "result": "3.67 µM (inactive)"}, {"measurement": "GI50", "setting": "A549", "result": "2.24 µM (inactive)"}, {"measurement": "GI50", "setting": "OVCAR-3", "result": "9.64 µM (inactive)"}, {"measurement": "GI50", "setting": "SK-MEL-5", "result": "4.18 µM (inactive)"}, {"measurement": "GI50", "setting": "UACC-257", "result": "2.33 µM (inactive)"}, {"measurement": "GI50", "setting": "SNB-19", "result": "6.22 µM (inactive)"}, {"measurement": "GI50", "setting": "SN12C", "result": "9.53 µM (inactive)"}, {"measurement": "GI50", "setting": "SK-MEL-2", "result": "7.91 µM (inactive)"}, {"measurement": "GI50", "setting": "NCI-H23", "result": "3.1 µM (inactive)"}, {"measurement": "GI50", "setting": "HL-60", "result": "1.82 µM (inactive)"}, {"measurement": "GI50", "setting": "OVCAR-5", "result": "2.66 µM (inactive)"}]}]}
